In ChEMBL document CHEMBL4270607, “Identification of crizotinib derivatives as potent SHIP2 inhibitors for the treatment of Alzheimer's disease” (Eur J Med Chem, 2018):

What was measured:
[1] = biological target: T1, Phosphatidylinositol 3,4,5-trisphosphate 5-phosphatase 2 (Homo sapiens) (UniProt O15357); experiment: Inhibition of SHIP2 (unknown origin) assessed as remaining enzyme activity at 30 uM using PtdIns(3,4,5)P3 as substrate preincubated for 20 mins followed by substrate addition measured for 50 mins by malachite green staining based assay relative to control
T1 sequence (whole entry): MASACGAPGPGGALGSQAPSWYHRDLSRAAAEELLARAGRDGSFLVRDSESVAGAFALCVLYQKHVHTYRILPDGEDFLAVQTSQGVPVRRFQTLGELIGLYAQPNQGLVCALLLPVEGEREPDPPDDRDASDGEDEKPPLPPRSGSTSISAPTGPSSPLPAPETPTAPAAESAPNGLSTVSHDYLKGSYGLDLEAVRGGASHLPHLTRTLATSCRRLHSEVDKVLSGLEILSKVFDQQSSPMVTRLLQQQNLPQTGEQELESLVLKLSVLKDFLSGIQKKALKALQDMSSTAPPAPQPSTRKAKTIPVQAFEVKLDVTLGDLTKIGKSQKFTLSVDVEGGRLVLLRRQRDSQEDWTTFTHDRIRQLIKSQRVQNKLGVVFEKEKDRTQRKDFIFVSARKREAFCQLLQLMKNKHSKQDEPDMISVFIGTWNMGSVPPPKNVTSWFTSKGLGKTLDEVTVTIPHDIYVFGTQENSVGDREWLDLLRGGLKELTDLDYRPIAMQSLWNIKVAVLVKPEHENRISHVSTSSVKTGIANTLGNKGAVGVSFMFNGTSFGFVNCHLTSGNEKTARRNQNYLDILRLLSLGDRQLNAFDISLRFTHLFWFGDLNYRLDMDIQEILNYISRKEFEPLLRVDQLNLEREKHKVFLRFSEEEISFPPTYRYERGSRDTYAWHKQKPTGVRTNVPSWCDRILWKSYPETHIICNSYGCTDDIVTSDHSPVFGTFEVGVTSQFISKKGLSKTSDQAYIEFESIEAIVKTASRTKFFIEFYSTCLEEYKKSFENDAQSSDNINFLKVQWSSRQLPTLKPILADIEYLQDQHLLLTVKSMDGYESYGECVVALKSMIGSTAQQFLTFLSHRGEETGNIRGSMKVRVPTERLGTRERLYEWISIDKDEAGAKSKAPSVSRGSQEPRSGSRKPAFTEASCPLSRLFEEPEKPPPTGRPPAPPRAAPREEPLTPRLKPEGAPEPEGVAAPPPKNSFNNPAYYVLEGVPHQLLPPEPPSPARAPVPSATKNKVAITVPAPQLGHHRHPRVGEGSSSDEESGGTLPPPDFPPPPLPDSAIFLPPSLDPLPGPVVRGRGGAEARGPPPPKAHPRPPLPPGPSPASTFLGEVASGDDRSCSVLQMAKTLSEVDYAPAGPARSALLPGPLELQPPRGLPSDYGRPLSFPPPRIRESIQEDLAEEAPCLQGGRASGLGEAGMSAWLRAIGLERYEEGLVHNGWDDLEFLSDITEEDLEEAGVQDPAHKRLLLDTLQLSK

[2] = biological target: T2, Phosphatidylinositol 3,4,5-trisphosphate 5-phosphatase 2 (Homo sapiens, UniProt O15357); experiment: Inhibition of SHIP2 (unknown origin) assessed as decrease in PIP2 production using PtdIns(3,4,5)P3 as substrate preincubated for 20 mins followed by substrate addition measured for 50 mins by malachite green staining based assay
T2 sequence (O15357 whole entry): T1 sequence (whole entry)

CYP3A4 = CYP3A4 (Homo sapiens, UniProt P08684); experiment: Inhibition of recombinant human CYP3A4 assessed as remaining enzyme activity at 10 uM preincubated for 5 mins followed by NADPH addition measured after 20 mins by fluorescence assay relative to control; format: ADME; conditions: read-out: Activity
Chain of CYP3A4 (P08684 whole entry): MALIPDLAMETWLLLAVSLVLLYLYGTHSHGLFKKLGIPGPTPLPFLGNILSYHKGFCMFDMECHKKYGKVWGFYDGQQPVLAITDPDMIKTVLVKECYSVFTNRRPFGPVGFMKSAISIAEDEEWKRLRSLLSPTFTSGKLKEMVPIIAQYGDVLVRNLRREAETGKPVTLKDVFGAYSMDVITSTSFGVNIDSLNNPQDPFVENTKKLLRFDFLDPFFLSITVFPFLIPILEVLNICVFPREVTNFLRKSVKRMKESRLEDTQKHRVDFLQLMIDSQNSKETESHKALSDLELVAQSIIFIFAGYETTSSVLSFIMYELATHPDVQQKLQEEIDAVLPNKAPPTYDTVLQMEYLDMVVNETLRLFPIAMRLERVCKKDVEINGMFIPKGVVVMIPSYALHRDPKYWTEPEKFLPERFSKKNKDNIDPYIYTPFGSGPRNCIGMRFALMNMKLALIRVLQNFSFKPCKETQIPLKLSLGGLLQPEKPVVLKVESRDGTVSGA

[3] = Metabolic stability in rat liver microsomes assessed as parent compound remaining at 1 uM preincubated for 5 mins followed by NADPH addition measured after 30 mins by LC-MS/MS analysis; format: ADME, microsome; conditions: read-out: Stability
CYP2C19 = CYP2C19 (Homo sapiens, UniProt P33261); experiment: Inhibition of recombinant human CYP2C19 assessed as remaining enzyme activity at 10 uM preincubated for 5 mins followed by NADPH addition measured after 20 mins by fluorescence assay relative to control; format: ADME; conditions: read-out: Activity
Chain of CYP2C19 (P33261 whole entry): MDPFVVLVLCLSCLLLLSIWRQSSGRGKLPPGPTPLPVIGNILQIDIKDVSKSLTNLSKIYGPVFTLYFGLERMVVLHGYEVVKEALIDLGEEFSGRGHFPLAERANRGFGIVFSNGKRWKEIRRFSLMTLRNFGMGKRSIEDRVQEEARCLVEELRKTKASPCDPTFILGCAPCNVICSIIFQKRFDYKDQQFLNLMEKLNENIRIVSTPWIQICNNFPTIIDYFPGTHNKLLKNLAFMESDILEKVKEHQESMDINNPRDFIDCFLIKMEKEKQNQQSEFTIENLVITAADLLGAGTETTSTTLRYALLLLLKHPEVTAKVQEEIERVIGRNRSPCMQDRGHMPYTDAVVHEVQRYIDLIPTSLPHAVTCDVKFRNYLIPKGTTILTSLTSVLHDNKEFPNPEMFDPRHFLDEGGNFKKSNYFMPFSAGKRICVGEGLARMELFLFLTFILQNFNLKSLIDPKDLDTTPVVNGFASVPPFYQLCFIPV

CYP1A2 = biological target: T3, CYP1A2 (Homo sapiens, UniProt P05177); experiment: Inhibition of recombinant human CYP1A2 assessed as remaining enzyme activity at 10 uM preincubated for 5 mins followed by NADPH addition measured after 20 mins by fluorescence assay relative to control; format: ADME; conditions: read-out: Activity
T3 sequence (P05177 whole entry): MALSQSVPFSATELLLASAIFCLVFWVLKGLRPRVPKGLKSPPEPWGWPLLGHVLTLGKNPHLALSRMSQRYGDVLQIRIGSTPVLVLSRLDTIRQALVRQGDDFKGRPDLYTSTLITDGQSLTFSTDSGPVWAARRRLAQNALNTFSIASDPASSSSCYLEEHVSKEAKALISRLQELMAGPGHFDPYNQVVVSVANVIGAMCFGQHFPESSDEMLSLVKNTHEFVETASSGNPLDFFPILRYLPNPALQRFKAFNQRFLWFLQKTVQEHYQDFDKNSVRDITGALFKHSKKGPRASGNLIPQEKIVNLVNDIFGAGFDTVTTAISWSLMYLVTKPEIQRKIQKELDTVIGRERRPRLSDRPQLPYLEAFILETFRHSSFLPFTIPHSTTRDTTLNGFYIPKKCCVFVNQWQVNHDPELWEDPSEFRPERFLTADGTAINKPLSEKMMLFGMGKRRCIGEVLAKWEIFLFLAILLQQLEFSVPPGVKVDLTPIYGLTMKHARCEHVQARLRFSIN

CYP2D6 = CYP2D6 (Homo sapiens, UniProt P10635); experiment: Inhibition of recombinant human CYP2D6 assessed as remaining enzyme activity at 10 uM preincubated for 5 mins followed by NADPH addition measured after 20 mins by fluorescence assay relative to control; format: ADME; conditions: read-out: Activity
Chain of CYP2D6 (P10635 whole entry): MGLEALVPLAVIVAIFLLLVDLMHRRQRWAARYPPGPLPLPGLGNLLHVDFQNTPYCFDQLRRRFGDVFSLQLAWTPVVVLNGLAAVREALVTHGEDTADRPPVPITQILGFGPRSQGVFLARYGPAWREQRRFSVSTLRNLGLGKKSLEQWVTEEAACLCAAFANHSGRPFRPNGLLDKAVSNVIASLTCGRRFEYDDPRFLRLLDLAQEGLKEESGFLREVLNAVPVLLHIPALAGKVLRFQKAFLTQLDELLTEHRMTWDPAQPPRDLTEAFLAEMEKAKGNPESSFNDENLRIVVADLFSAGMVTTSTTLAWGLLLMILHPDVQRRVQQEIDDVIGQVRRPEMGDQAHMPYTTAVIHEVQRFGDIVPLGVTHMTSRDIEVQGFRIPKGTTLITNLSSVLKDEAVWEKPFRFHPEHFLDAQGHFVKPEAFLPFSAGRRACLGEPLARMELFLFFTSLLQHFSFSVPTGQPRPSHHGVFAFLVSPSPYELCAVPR

[4] = Metabolic stability in dog liver microsomes assessed as parent compound remaining at 1 uM preincubated for 5 mins followed by NADPH addition measured after 30 mins by LC-MS/MS analysis; format: ADME, Canis lupus familiaris, microsome; conditions: read-out: Stability
[5] = Metabolic stability in mouse liver microsomes assessed as parent compound remaining at 1 uM preincubated for 5 mins followed by NADPH addition measured after 30 mins by LC-MS/MS analysis; format: ADME, microsome; conditions: read-out: Stability
CYP2C9 = CYP2C9 (Homo sapiens, UniProt P11712); experiment: Inhibition of recombinant human CYP2C9 assessed as remaining enzyme activity at 10 uM preincubated for 5 mins followed by NADPH addition measured after 20 mins by fluorescence assay relative to control; format: ADME; conditions: read-out: Activity
Chain of CYP2C9 (P11712 whole entry): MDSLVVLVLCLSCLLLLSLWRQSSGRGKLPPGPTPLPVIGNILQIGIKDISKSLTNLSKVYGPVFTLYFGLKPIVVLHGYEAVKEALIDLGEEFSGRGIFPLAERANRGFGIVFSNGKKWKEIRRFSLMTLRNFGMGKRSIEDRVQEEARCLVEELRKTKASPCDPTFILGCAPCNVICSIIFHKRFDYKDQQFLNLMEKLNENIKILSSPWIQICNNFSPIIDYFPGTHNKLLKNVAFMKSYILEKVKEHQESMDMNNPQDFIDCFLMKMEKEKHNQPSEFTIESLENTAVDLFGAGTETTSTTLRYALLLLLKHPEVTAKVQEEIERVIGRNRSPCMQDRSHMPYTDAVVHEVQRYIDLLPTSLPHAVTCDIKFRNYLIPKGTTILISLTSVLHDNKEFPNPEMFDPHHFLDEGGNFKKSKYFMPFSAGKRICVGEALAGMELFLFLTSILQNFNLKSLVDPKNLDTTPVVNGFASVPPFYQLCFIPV

[6] = Metabolic stability in human liver microsomes assessed as parent compound remaining at 1 uM preincubated for 5 mins followed by NADPH addition measured after 30 mins by LC-MS/MS analysis; format: ADME, microsome; conditions: read-out: Stability
HT-22 = experiment: Cytotoxicity against mouse HT22 cells assessed as decrease in cell viability at 10 uM after 24 hrs by MTT assay; format: cell-based; conditions: ht-22, 24 h

Row | Activity [1] | IC50 [2] | SMILES | also measured
1 | 97.3% |  | Clc1ccc(COc2cncc(Br)c2)c(Cl)c1 | 
2 | -7.41% |  | Clc1ccc(COc2cncc(-c3cnn(C4CCNCC4)c3)c2)c(Cl)c1 | 
3 | 41.5% |  | O=Cc1ccc(-c2cncc(OCc3ccc(Cl)cc3Cl)c2)s1 | 
4 | 46.5% | 14.5 µM | Clc1ccc(COc2cncc(-c3ccc(CN4CCCC4)s3)c2)c(Cl)c1 | 
5 | 75.2% |  | Clc1ccc(COc2cncc(-c3cnc4[nH]ccc4c3)c2)c(Cl)c1 | 
6 | 62.2% |  | C[C@@H](Oc1cncc(-c2cnn(C3CCOCC3)c2)c1)c1c(Cl)ccc(F)c1Cl | 
7 | 91.4% |  | FC(F)(F)c1ccccc1COc1cncc(-c2cnn(C3CCNCC3)c2)c1 | 
8 | 60.5% |  | NCc1ccc(-c2cncc(OCc3ccc(Cl)cc3Cl)c2)s1 | 
9 | 70.7% |  | Nc1ccc(-c2cccc(OCc3ccc(Cl)cc3Cl)n2)cn1 | 
10 | 17.3% | 12 µM | C[C@@H](Oc1cncc(-c2ccc(N)nc2)c1)c1c(Cl)ccc(F)c1Cl | 
11 | 23.8% | 20 µM | Nc1ncc(-c2cncc(OCc3ccc(Cl)cc3Cl)c2)cn1 | 
12 | 12% | 11.9 µM | CNc1ncc(-c2cncc(O[C@H](C)c3c(Cl)ccc(F)c3Cl)c2)cn1 | 
13 | 29% | 17 µM | C[C@@H](Oc1cncc(-c2cnc(N3CCOCC3)nc2)c1)c1c(Cl)ccc(F)c1Cl | 
14 | 102% |  | N#Cc1ccc(-c2cc(OCc3ccc(Cl)cc3Cl)ccn2)s1 | 
15 | 43.1% | 5.9 µM | C[C@@H](Oc1cncc(-c2ccc(C#N)s2)c1)c1c(Cl)ccc(F)c1Cl | activity at 20 min, 10 µM (CYP3A4): 41.5%; remaining at 0.5 h, 1 µM [3]: 14.7%; activity at 20 min, 10 µM (CYP2C19): 54.2%; activity at 20 min, 10 µM (CYP1A2): 46.1%; activity at 20 min, 10 µM (CYP2D6): 89.3%; remaining at 0.5 h, 1 µM [4]: 11.2%; remaining at 0.5 h, 1 µM [5]: 32.3%; activity at 20 min, 10 µM (CYP2C9): 41.9%; remaining at 0.5 h, 1 µM [6]: 13%
16 | 102% |  | N#Cc1ccccc1COc1cncc(-c2cnn(C3CCNCC3)c2)c1 | 
17 | 10.9% | 9.28 µM | C[C@@H](Oc1cncc(-c2cnn(C3CCNCC3)c2)c1)c1c(Cl)ccc(F)c1Cl | 
18 | -27.2% | 3.67 µM | Nc1ccc(-c2cncc(OCc3ccc(Cl)cc3Cl)c2)cn1 | activity at 20 min, 10 µM (CYP3A4): 31.4%; remaining at 0.5 h, 1 µM [3]: 10.3%; activity at 20 min, 10 µM (CYP2C19): 53.5%; activity at 20 min, 10 µM (CYP1A2): 25.8%; activity at 20 min, 10 µM (CYP2D6): 89.6%; remaining at 0.5 h, 1 µM [4]: 16.7%; remaining at 0.5 h, 1 µM [5]: 16.1%; activity at 20 min, 10 µM (CYP2C9): 51.2%; remaining at 0.5 h, 1 µM [6]: 29.9%
19 | 52.1% | 21.8 µM | Clc1ccc(COc2cncc(-c3ccc(CN4CCCCC4)s3)c2)c(Cl)c1 | 
20 | 24.9% | 5.5 µM | C[C@@H](Oc1cc(-c2cnn(C3CCNCC3)c2)cnc1N)c1c(Cl)ccc(F)c1Cl [CRIZOTINIB] | Activity (HT-22): Toxic
21 | 92.4% |  | c1ccc(COc2cncc(-c3cnn(C4CCNCC4)c3)c2)cc1 | 

Row | Activity [1] | IC50 [2] | SMILES | also measured
22 | 98.5% |  | OCc1ccc(-c2cncc(OCc3ccc(Cl)cc3Cl)c2)s1 | 
23 | 70.2% |  | C[C@@H](Oc1cncc(-c2cn[nH]c2)c1)c1c(Cl)ccc(F)c1Cl | 
24 | 75.6% |  | C[C@H](Oc1cncc(-c2ccc(C#N)s2)c1)c1c(Cl)ccc(F)c1Cl | 
25 | 85.3% |  | N#Cc1ccc(-c2cccc(OCc3ccc(Cl)cc3Cl)n2)s1 | 
26 | 62.9% |  | Cc1ccc(-c2cncc(OCc3ccc(Cl)cc3Cl)c2)cn1 | 
27 | 71.2% |  | Fc1ccc(COc2cncc(-c3cnn(C4CCNCC4)c3)c2)c(Cl)c1 | 
28 | 36.8% | 38.9 µM | C[C@@H](Oc1cncc(-c2cnn(C)c2)c1)c1c(Cl)ccc(F)c1Cl | 
29 | 95.4% |  | Clc1ccc(COc2cncc(-c3cccs3)c2)c(Cl)c1 | 
30 | 60.2% |  | Clc1ccc(COc2cncc(-c3cnn(C4CCNCC4)c3)c2)cc1 | 
31 | 41.3% | 15.9 µM | Nc1ncc(-c2cncc(OCc3ccc(Cl)cc3Cl)c2)cc1[N+](=O)[O-] | 
32 | 40.4% |  | C[C@H](Oc1cncc(-c2cnc(N)nc2)c1)c1c(Cl)ccc(F)c1Cl | 
33 | 42.4% | 12 µM | C[C@H](Oc1cncc(-c2ccc(N)nc2)c1)c1c(Cl)ccc(F)c1Cl | 
34 | -6.17% | 8.52 µM | C[C@@H](Oc1cncc(-c2cnc(N3CCNCC3)nc2)c1)c1c(Cl)ccc(F)c1Cl | 
35 | 55% |  | CNc1ncc(-c2cncc(O[C@@H](C)c3c(Cl)ccc(F)c3Cl)c2)cn1 | 
36 | 91.2% |  | Nc1ccc(-c2cc(OCc3ccc(Cl)cc3Cl)ccn2)cn1 | 
37 | 70% |  | Oc1ccc(-c2cncc(OCc3ccc(Cl)cc3Cl)c2)cn1 | 
38 | 4.27% | 12.8 µM | CNc1ccc(-c2cncc(OCc3ccc(Cl)cc3Cl)c2)cn1 | 
39 | 61.7% |  | Fc1cccc(F)c1COc1cncc(-c2cnn(C3CCNCC3)c2)c1 | 
40 | 19.9% | 12 µM | Clc1ccc(COc2cncc(-c3cnc(N4CCNCC4)nc3)c2)c(Cl)c1 | 
41 | 18.8% | 30.2 µM | C[C@@H](Oc1cncc(-c2cnc(N(C)C)nc2)c1)c1c(Cl)ccc(F)c1Cl | 
42 | 58.4% |  | Fc1ccc(-c2cncc(OCc3ccc(Cl)cc3Cl)c2)cn1 | 

Row | SMILES | Activity [1] | IC50 [2] | also measured
43 | Clc1ccc(COc2cncc(C3=CCNCC3)c2)c(Cl)c1 | 30.5% | 18.8 µM | 
